What was measured:
[1] = target: T1, binding of His-XIAP(BIR2)-avi fusion protein to GST-RIPK2 fusion protein (RIPK2/XIAP) (Homo sapiens, UniProt O43353); test: RIPK2-XIAP binding competition PPI assay (TR-FRET); conditions: RIPK2/XIAP binding competition PPI assay; for Emax: Amax, read-out: PPI Amax bin; for IC50: read-out: PPI IC50 bin
T1 construct: made in house; host or cells: baculovirus infected Sf9 cells
Outline: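 Compounds (in DMSO, 100-fold stock) incubated 120 min at 23 °C with 1 nM GST-RIPK2 (aa 1-310) and 25 nM His-XIAP(BIR2 aa 152-231)-avi, plus anti-His-XL665 and anti-GST-Tb, in pH 7.5 Tris buffer. Read-out: 665/520 nm emission ratio. Normalized to no-inhibitor (0%) and 50 nM GSK583 (−100%); Amax binned A–D.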

[2] = target: T2, GST-RIPK2 fusion protein (human RIPK2, amino acids 1-310) (Homo sapiens, UniProt O43353); test: RIPK2 binding competition assay (TR-FRET, Tracer 199 displacement); conditions: 10 nM Tracer 199, 1 nM GST-RIPK2, read-out: RIPK2 IC50
T2 construct: made in house; host or cells: baculovirus infected Sf9 cells
T2 sequence (O43353 1-310): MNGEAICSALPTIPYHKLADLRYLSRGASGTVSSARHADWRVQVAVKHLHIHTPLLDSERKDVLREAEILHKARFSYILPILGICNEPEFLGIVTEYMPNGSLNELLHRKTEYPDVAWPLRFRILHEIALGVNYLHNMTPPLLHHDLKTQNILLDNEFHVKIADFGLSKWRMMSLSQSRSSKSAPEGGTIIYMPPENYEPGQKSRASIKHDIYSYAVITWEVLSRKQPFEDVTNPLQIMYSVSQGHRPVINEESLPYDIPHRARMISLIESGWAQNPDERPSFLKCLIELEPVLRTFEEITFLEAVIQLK
Outline: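 GST-RIPK2 (human aa 1-310, Sf9-expressed; final 1 nM) with Tracer 199 (final 10 nM) and Tb-anti-GST (final 0.5 nM) in Tris pH 7.5 buffer, 45 min at 22 °C. TR-FRET 665/620 nm ratio after 337 nm excitation; normalized to no-inhibitor (0%) and no-protein (−100%), giving IC50.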

[3] = tested on: NF-κB pathway (SEAP) in THP1-Dual cells; test: THP-1 Dual cell SEAP assay (L18-MDP stimulated); format: cell-based; conditions: Homo sapiens, THP1-Dual, read-out: NF-κB THP1 IC50 bin
Outline: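 THP1-Dual cells (~25,000/well) were preincubated 30 min with serially diluted compounds, then stimulated with 10 ng/mL L18-MDP (final) for 20-24 h at 37 °C. Supernatant SEAP was read with QUANTI-Blue at OD 620-655 nm after 2 h. IC50 came from non-linear fits of % inhibition versus DMSO/L18-MDP controls after media-blank subtraction.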

T1 sequence (O43353 1-310 limits assumed): as the sequence (O43353 1-310) above

Compound	Emax [1] [%]	IC50 [1] [nM]	IC50 [2] [nM]	IC50 [3] [nM]
COc1cc2ncc(-c3cc(F)c(N)nc3F)n2cc1S(=O)(=O)C1(C)CCOCC1 [Example 72, 3,6-difluoro-5-(7-methoxy-6-((4-methyltetrahydro-2H-pyran-4-yl)sulfonyl)imidazo[1,2-a]pyridin-3-yl)pyridin-2-amine]	> 80	> 20	> 20	> 1000
COc1cn2ncc(-c3cc(F)c(N)nc3F)c2cc1C1(O)CCN(C)CC1 [Example 73, 4-(3-(6-amino-2,5-difluoropyridin-3-yl)-6-methoxypyrazolo[1,5-a]pyridin-5-yl)-1-methylpiperidin-4-ol]	> 80	2.5 to 20	2.5 to 20	250 to 1000
COc1cc2ncc(-c3cc(F)c(N)nc3F)n2cc1C1(O)CCN(C)CC1 [Example 74, 4-(3-(6-amino-2,5-difluoropyridin-3-yl)-7-methoxyimidazo[1,2-a]pyridin-6-yl)-1-methylpiperidin-4-ol]	> 80	> 20	> 20	> 1000
COc1cc2ncc(-c3cc(F)c(N)nc3F)n2cc1C1(O)CCOCC1 [Example 75, 4-(3-(6-amino-2,5-difluoropyridin-3-yl)-7-methoxyimidazo[1,2-a]pyridin-6-yl)tetrahydro-2H-pyran-4-ol]	> 80	> 20	> 20	> 1000
COc1cc2ncc(-c3cc(F)c(N)nc3F)n2cc1C1(OC)CCOCC1 [Example 76, 3,6-difluoro-5-(7-methoxy-6-(4-methoxytetrahydro-2H-pyran-4-yl)imidazo[1,2-a]pyridin-3-yl)pyridin-2-amine]	> 80	> 20	> 20	> 1000
COc1cc2ncc(-c3cc(F)c(N)nc3F)n2cc1S(=O)(=O)c1ccnn1C [Example 77, 3,6-difluoro-5-(7-methoxy-6-((1-methyl-1H-pyrazol-5-yl)sulfonyl)imidazo[1,2-a]pyridin-3-yl)pyridin-2-amine]	> 80	> 20	> 20	> 1000
COc1cc2ncc(-c3cc(F)c(N)nc3F)n2cc1S(=O)(=O)c1cn[nH]c1 [Example 78, 5-(6-((1H-pyrazol-4-yl)sulfonyl)-7-methoxyimidazo[1,2-a]pyridin-3-yl)-3,6-difluoropyridin-2-amine]	> 80	2.5 to 20	2.5 to 20	> 1000
COc1cc2ncc(-c3cc(F)c(N)nc3F)n2cc1P1(=O)CCN(C)CC1 [Example 79, 4-(3-(6-amino-2,5-difluoropyridin-3-yl)-7-methoxyimidazo[1,2-a]pyridin-6-yl)-1-methyl-1,4-azaphosphinane 4-oxide]	> 80	> 20	> 20	> 1000
COc1ccn2ncc(-c3cc(N)cc(F)c3)c2n1 [Example 80, 3-fluoro-5-(5-methoxypyrazolo[1,5-a]pyrimidin-3-yl)aniline]	< 30	> 20	> 20	> 1000
CCCS(=O)(=O)Nc1cc(-c2cnc3cc(OC)c(S(=O)(=O)C(C)(C)C)cn23)cc(-n2cccn2)c1 [Example 81, N-(3-(6-(tert-butylsulfonyl)-7-methoxyimidazo[1,2-a]pyridin-3-yl)-5-(1H-pyrazol-1-yl)phenyl)propane-1-sulfonamide]	< 30	> 20	1 to 2.5	250 to 1000
COc1cc2ncc(-c3cnc4c(c3)NCCO4)n2cc1S(=O)(=O)C(C)(C)C [Example 82, 7-(6-(tert-butylsulfonyl)-7-methoxyimidazo[1,2-a]pyridin-3-yl)-2,3-dihydro-1H-pyrido[2,3-b][1,4]oxazine]	< 30	> 20	> 20	> 1000

— US20260137706A1, “METHODS OF TREATING INFLAMMATORY DISEASES” (INTERLINE THERAPEUTICS, INC., priority 2023, published 2026)
